According to ChEMBL document CHEMBL4732163 (Eur J Med Chem, 2021):

Key:
[1] = Cytotoxicity against DENV-2 New Guinea C infected human Huh-7 cells assessed as reduction in cell viability preincubated for 1 hr followed by viral infection and measured after 48 hrs by Alamar blue assay; format: cell-based; details: Huh-7 cells infected with DENV-2 New Guinea C, time 49 hrs
[2] = tested on: dengue virus type 2; assay: Antiviral activity against DENV-2 New Guinea C infected in human Huh-7 cells preincubated for 1 hr followed by viral infection and measured after 48 hrs by Renilla luciferase reporter gene assay
[3] = target: T1, Cyclin-G-associated kinase (Homo sapiens, UniProt O14976); assay: Inhibition of tracer 222 binding to GAK (unknown origin) incubated for 1 hr by Lanthascreen TR-FRET assay
T1 sequence (O14976 whole entry): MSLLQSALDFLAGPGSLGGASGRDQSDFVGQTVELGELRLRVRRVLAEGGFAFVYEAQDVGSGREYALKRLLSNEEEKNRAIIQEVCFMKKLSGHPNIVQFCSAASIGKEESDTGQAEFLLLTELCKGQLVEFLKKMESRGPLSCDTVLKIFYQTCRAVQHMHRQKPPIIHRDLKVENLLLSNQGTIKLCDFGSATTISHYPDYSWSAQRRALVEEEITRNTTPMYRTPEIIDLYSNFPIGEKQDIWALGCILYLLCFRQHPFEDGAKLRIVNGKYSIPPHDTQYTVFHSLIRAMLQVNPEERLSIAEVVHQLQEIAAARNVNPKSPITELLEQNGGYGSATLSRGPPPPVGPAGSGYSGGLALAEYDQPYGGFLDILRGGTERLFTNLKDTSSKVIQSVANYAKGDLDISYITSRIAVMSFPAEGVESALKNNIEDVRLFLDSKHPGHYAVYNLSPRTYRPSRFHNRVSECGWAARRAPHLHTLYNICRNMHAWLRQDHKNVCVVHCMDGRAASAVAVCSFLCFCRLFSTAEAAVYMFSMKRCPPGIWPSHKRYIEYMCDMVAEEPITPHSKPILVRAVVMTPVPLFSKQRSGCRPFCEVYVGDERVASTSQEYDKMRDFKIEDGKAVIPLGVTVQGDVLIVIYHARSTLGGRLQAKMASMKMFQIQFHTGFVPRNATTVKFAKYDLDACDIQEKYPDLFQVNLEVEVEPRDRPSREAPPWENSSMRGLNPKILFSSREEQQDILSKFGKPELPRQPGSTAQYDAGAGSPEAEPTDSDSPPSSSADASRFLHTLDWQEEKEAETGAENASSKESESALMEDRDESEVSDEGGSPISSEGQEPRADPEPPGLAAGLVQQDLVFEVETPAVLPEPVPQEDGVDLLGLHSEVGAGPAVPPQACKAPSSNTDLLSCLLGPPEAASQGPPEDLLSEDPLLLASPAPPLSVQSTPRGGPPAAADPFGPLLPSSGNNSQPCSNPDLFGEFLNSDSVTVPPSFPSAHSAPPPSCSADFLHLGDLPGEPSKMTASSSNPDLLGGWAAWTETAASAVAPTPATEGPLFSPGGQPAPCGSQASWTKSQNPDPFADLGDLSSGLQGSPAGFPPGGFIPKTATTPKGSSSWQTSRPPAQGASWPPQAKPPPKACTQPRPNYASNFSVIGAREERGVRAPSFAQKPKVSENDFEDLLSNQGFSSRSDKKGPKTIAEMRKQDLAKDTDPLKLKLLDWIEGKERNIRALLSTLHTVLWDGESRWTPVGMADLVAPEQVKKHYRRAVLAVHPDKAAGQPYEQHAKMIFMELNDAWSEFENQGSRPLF

[4] = target: High affinity nerve growth factor receptor (Homo sapiens) (UniProt P04629); assay: Inhibition of wild-type human partial length TRKA (G475 to G790 residues) expressed in mammalian expression system assessed as residual activity at 10 uM by Kinomescan method relative to control
Chain of High affinity nerve growth factor receptor (Homo sapiens) (P04629 33-796 limits assumed): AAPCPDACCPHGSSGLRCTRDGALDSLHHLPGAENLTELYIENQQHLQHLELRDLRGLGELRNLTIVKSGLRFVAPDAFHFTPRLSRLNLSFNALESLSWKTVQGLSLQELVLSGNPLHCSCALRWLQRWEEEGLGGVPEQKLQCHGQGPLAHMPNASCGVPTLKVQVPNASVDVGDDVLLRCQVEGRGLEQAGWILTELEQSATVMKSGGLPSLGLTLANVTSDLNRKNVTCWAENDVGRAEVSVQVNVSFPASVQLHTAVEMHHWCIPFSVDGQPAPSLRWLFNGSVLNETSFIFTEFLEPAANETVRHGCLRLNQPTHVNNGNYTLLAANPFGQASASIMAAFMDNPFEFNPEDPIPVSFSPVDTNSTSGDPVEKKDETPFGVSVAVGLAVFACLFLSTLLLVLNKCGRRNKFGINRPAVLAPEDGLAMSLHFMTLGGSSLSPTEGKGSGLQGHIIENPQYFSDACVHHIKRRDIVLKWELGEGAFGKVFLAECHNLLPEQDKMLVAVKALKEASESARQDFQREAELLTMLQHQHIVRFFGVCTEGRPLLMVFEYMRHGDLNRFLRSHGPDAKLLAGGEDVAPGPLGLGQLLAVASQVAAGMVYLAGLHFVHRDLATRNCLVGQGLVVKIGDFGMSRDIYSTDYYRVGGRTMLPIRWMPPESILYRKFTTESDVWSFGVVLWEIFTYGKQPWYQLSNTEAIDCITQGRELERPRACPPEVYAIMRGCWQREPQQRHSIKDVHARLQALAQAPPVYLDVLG

[5] = target: Platelet-derived growth factor receptor alpha (Homo sapiens) (UniProt P16234); assay: Inhibition of wild-type human partial length PDGFRA (V575 to D1002 residues) expressed in mammalian expression system assessed as residual activity at 10 uM by Kinomescan method relative to control
Chain of Platelet-derived growth factor receptor alpha (Homo sapiens) (P16234 whole entry, the tested form may be a part): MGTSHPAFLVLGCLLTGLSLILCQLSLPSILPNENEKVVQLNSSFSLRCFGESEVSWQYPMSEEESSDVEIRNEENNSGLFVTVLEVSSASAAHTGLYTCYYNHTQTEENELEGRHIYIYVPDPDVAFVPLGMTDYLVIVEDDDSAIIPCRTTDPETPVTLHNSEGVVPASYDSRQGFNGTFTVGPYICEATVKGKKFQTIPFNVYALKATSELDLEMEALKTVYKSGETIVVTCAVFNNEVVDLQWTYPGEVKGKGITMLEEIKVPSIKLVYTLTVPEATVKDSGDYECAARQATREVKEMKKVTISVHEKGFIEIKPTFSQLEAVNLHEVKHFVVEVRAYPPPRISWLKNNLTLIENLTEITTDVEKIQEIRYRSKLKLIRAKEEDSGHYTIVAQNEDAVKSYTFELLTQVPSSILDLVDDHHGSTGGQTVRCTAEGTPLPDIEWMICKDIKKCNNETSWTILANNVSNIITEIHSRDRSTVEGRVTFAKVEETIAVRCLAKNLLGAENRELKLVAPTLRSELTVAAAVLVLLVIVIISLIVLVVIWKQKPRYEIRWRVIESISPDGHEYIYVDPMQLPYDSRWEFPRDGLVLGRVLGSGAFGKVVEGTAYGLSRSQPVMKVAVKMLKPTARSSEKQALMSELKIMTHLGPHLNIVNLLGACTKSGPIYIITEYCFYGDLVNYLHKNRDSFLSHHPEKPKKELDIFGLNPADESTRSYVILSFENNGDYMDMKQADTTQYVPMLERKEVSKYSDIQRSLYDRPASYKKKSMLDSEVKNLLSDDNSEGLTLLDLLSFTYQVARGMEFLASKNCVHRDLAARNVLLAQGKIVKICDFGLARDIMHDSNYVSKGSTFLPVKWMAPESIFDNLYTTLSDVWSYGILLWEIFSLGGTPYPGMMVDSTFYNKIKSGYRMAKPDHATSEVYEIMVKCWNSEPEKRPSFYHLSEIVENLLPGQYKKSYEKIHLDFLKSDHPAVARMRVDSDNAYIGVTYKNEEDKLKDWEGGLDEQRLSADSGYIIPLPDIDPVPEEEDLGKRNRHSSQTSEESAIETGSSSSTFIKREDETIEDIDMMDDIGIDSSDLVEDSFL

[6] = target: Cyclin-dependent kinase 7 (Homo sapiens) (UniProt P50613); assay: Inhibition of wild-type human full length CDK7 (M1 to L344 residues) expressed in mammalian expression system assessed as residual activity at 10 uM by Kinomescan method relative to control
Chain of Cyclin-dependent kinase 7 (Homo sapiens) (P50613 whole entry, the tested form may be a part): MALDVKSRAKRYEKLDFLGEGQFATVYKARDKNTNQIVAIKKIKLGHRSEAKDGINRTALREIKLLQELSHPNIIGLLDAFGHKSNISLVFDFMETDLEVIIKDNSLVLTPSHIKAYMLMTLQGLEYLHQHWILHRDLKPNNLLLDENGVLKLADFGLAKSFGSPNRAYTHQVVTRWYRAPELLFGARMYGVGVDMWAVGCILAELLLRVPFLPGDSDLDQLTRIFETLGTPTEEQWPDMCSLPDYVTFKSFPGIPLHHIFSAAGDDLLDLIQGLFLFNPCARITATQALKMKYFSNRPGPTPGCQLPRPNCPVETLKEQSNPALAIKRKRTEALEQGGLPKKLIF

[7] = target: Mast/stem cell growth factor receptor Kit (Homo sapiens) (UniProt P10721); assay: Inhibition of wild-type human partial length KIT (I571 to D952 residues) expressed in bacterial expression system assessed as residual activity at 10 uM by Kinomescan method relative to control
Chain of Mast/stem cell growth factor receptor Kit (Homo sapiens) (P10721 whole entry, the tested form may be a part): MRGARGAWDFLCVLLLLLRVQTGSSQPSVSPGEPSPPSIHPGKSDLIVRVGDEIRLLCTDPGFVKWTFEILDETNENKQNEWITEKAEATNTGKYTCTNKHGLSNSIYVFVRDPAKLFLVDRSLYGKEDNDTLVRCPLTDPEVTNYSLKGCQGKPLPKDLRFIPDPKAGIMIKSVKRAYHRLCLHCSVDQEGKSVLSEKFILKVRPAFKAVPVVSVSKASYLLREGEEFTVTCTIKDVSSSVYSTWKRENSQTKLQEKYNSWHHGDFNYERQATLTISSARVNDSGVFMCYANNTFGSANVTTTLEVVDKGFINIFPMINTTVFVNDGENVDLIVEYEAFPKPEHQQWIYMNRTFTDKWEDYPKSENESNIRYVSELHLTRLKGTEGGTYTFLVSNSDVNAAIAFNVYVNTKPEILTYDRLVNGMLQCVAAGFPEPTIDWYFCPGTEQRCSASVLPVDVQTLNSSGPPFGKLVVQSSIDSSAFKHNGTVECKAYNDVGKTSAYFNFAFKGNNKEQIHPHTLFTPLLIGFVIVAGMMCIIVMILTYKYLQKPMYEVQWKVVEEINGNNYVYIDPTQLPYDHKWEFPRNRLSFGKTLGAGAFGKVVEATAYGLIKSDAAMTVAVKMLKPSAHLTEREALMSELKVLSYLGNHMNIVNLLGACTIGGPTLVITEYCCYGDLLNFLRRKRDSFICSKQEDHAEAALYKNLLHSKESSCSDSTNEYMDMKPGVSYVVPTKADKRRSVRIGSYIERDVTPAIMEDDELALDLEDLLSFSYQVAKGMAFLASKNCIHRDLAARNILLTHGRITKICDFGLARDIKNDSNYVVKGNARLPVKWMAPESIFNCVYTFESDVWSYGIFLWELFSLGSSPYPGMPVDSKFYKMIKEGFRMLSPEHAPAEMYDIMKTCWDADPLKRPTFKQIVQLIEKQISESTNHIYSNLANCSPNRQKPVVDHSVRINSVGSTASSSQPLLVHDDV

[8] = target: MAP kinase-interacting serine/threonine-protein kinase 2 (Homo sapiens) (UniProt Q9HBH9); assay: Inhibition of wild-type human partial length MKNK2 (G63 to S388 residues) expressed in mammalian expression system assessed as residual activity at 10 uM by Kinomescan method relative to control
Chain of MAP kinase-interacting serine/threonine-protein kinase 2 (Homo sapiens) (Q9HBH9 whole entry, looked up, the tested form may be a part): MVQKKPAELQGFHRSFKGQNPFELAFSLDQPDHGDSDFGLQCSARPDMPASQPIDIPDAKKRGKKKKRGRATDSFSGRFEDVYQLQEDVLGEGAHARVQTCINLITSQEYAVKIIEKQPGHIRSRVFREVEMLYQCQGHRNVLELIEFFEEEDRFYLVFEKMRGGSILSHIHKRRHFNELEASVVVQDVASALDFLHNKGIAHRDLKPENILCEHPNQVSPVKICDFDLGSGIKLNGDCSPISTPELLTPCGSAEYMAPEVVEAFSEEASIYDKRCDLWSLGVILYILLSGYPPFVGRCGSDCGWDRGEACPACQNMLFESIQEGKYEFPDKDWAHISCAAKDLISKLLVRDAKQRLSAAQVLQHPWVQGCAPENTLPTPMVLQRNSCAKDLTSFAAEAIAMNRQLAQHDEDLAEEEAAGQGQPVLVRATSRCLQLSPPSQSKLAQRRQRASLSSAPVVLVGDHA

[9] = target: Receptor-type tyrosine-protein kinase FLT3 (Homo sapiens) (UniProt P36888); assay: Inhibition of wild-type human partial length FLT3 (V592 to Y969 residues) expressed in bacterial expression system assessed as residual activity at 10 uM by Kinomescan method relative to control
Chain of Receptor-type tyrosine-protein kinase FLT3 (Homo sapiens) (P36888 whole entry, the tested form may be a part): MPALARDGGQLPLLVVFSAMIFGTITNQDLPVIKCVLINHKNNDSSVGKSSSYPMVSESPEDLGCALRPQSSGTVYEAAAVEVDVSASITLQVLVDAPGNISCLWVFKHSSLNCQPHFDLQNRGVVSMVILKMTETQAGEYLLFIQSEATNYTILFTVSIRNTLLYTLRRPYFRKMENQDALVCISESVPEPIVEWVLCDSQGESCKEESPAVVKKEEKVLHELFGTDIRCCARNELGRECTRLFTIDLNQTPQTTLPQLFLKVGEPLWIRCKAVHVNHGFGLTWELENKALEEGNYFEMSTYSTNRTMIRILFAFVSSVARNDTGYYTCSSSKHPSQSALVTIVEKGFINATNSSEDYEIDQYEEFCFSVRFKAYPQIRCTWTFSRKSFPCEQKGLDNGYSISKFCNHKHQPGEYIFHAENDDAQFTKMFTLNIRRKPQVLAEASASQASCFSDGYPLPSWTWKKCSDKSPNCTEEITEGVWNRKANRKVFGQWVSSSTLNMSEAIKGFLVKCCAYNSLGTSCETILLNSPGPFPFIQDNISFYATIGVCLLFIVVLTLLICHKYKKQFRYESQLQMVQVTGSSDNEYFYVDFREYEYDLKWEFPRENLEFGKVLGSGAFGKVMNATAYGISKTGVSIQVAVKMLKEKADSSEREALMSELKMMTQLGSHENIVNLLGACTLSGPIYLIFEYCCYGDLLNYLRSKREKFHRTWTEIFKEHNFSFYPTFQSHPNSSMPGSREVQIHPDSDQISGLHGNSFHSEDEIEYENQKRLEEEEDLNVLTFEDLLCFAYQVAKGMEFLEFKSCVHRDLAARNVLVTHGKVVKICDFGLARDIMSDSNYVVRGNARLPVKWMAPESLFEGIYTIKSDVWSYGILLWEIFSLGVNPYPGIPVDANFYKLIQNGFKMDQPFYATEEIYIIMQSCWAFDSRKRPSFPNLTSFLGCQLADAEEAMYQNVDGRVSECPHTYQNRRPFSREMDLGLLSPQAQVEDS

[10] = target: Platelet-derived growth factor receptor beta (Homo sapiens) (UniProt P09619); assay: Inhibition of wild-type human partial length PDGFRB (V582 to Y1009 residues) expressed in bacterial expression system assessed as residual activity at 10 uM by Kinomescan method relative to control

| EC50 [2] [µM] | IC50 [3] [µM] | Compound | CC50 at 48 h [1] [µM] | other results |
| --- | --- | --- | --- | --- |
| 3.8 | – | COc1cc(-c2cnc3c(-c4cccc(NC(=O)C(C)C)c4)snc3c2)ccc1N | 14 | – |
| – | > 1.1 | CCC(=O)Nc1ccc(-c2snc3cc(-c4ccc(N)c(OC)c4)cnc23)cc1 | – | – |
| 2.6 | – | COc1cc(-c2cnc3c(N4CCCC(CNC(=O)C5CCCC5)C4)snc3c2)ccc1N (stereo not drawn) | > 20 | – |
| 7.9 | – | COc1cc(-c2cnc3c(-c4cccc(NC(=O)N5CCOCC5)c4)snc3c2)ccc1N | > 20 | – |
| – | 0.36 | COc1cc(-c2cnc3c(N4CCC[C@@H](CNC(=O)C5CC5)C4)snc3c2)ccc1N | – | – |
| 4.1 | – | COc1cc(-c2cnc3c(N4CCCC(CNC(=O)N5CCCC5)C4)snc3c2)ccc1N (stereo not drawn) | > 20 | – |
| 3.6 | – | COc1cc(-c2cnc3c(-c4cccc(NC(=O)C5CC5)c4)snc3c2)ccc1N | 15 | – |
| 4 | 0.014 | COc1cc(-c2cnc3c(N4CCCC(CNC(=O)C5CC5)C4)snc3c2)ccc1N (stereo not drawn) | > 20 | – |
| 7.5 | 0.013 | COc1cc(-c2cnc3c(N4CCC[C@H](CNC(=O)C5CC5)C4)snc3c2)ccc1N | > 20 | Activity [4]: < 10%; Activity [5]: < 10%; Activity [6]: < 10%; Activity [7]: < 10%; Activity [8]: < 10%; Activity [9]: < 10%; Activity [10]: < 10% |
| 0.96 | – | COc1cc(-c2cnc3c(N4C[C@@H](C)O[C@@H](C)C4)snc3c2)ccc1N | > 20 | – |
| – | 0.051 | COc1cc(-c2cnc3c(N4CCOCC4)snc3c2)ccc1N | – | – |
| 6 | – | COc1cc(-c2cnc3c(-c4cccc(NC(=O)N5CCCC5)c4)snc3c2)ccc1N | > 20 | – |
| 1.8 | – | COc1cc(-c2cnc3c(-c4cccc(NC(=O)C5CCCC5)c4)snc3c2)ccc1N | 13 | – |
| 3.9 | – | COc1cc(-c2cnc3c(N4CCCC(CNC(=O)c5ccccc5)C4)snc3c2)ccc1N (stereo not drawn) | > 20 | – |
| 1.9 | – | CCC(=O)Nc1cccc(-c2snc3cc(-c4ccc(N)c(OC)c4)cnc23)c1 | 9.9 | – |

| Compound | EC50 [2] [µM] | IC50 [3] [µM] | CC50 at 48 h [1] [µM] | other results |
| --- | --- | --- | --- | --- |
| C#Cc1cccc(Nc2ncnc3cc(OCCOC)c(OCCOC)cc23)c1 [ERLOTINIB] | 12 | – | > 20 | – |
